Columns and labels:
[1] = Lipid lowering effect in normal Wistar rats (Example 4); assay type: in vivo; conditions: gavage once daily for 7 days; dose mg/day/kg body weight: TSA 15, EPA 1500, TTA 150
Experimental: Phospholipids were measured by the enzymatic method of bioMérieux, Marcy-l{grave over ( )}Etoile, France, Triacylglycerol by the Technicon Method no. SA4-0324L90, USA and Cholesterol by the Technicon Method no. SA4-0305L90, USA.
Male Wistar rats, weighing 180-200 g at the start of the experiment, were housed individually in metal wire cages in a room maintained at 12 h light-dark cycles and a constant temperature of 20±3° C. The animals were acclimatised for one week under these conditions before the start of the experiments.
TTA, TSA and eicosapentaenoic acid (EPA) were suspended in 0.5% (w/v) carboxymethyl cellulose (CMC). Six animals were used for each treatment, and a 0.5% CMC solution was administrated to the rats as control. After administration of the test compound, the rats were fasted for 12 hours and anaesthetised with haloethan. The EPA and the fatty acid derivatives were administered by gastric intubation (gavage) once daily for 7 days. Blood samples were collected by cardiac puncture, and lipid concentrations in plasma were determined as outlined in the method section.

[2] = Hepatic levels of triacylglycerol (Example 17); assay type: in vivo, Wistar rats; conditions: fed 6 days, no prefeeding; TTA 150 mg/kg/day, TTP 300 mg/kg/day
Experimental: Male Wistar rats had free access to water and rat maintenance chow. They were fed palmitic acid or fatty acid analogues suspended in 0.5% CMC for 6 days. In some experiments TTA or TTP were fed for 3 days before feeding both for 6 days. At the end of the experiment the rats were fasted overnight, killed, the liver removed and homogenized. Triacylglycerol was measured in the homogenate.

[3] = Body weight of normal rats after 12 weeks (Example 6); assay type: in vivo; conditions: male Wistar rats, oral, 12 weeks of treatment
Experimental: 2 groups of 6 male Wistar Rats were randomly selected, and studied for weight development over a period of 12 week. The body weight of each Wistar rat was measured at the start of the experiment. All animals in both groups received individually the same amount of food (nutrition) during the experimental period of 12 weeks. All animals in one of the groups were orally administrated with the medicament comprising TTA. The other group was the control group (CMC). After the 12 week period the body weight of rats were measured again.

[4] = Fatty acid composition in liver and plasma of obese Zucker fa/fa rats (Example 19); assay type: in vivo; conditions: 300 mg/day/kg by gavage once daily for 10 days
Experimental: Male obese Zucker fa/fa rats, weighing 100 g at the start of the experiment, were housed in pairs in metal wire cages in a room maintained at 12 h light-dark cycles and a constant temperature of 20±° C. The animals were acclimatised for at least one week under these conditions before the start of the experiment.
TTA and palmitic acid (control), was suspended in 0.5% (w/v) carboxymethyl cellulose (CMC) and administered at a dose of 300 mg/day/kg body weight, by gastric intubation (gavage) once daily for 10 days. The rats were fasted for 2 hours before termination of the experiment. Blood and organs were collected. Total lipids were extracted from liver and plasma. The lipids were evaporated, saponified and esterified prior to separation using a Carlo Erba 2900 gas-chromatograph.

[5] = Fatty acid content after 12 weeks administration to rats; assay type: in vivo; conditions: administration to rats for 12 weeks
[6] = Body weight gain, liver and adipose tissue weight in young obese Zucker rats (Example 9); assay type: in vivo, obese Zucker (fa/fa) rats; conditions: 5 week-old male rats, TTA 300/kg/day in 0.5% CMC, 11 days; means ± SD
Experimental: The obese Zucker (fa/fa) rats used in this study were bred at the U 465 INSERM animal facility from pairs originally provided by the Harriet G. Bird Laboratory (Stow, Mass., USA). Unless otherwise stated, the animals were maintained under a constant light-dark cycle (light from 7:00 a.m. to 7:00 p.m.) at 21±1° C. and were given free access to food and water. Three rats were housed per cage. Weight gains were recorded daily.
5 week-old male obese Zucker (fa/fa) rats fed with TTA, 300/kg/day suspended in 0.5% CMC. Control animals received CMC only. Following 11 days of treatment, rats were killed by cervical dislocation, liver and epididymal adipose tissue pads were dissected out and weighed. Data are means±SD of 6 animals in the control- and 6 animals in the experimental group.

## Tetradecylthioacetic acid [TTA]
[1]
  Plasma lipids: cholesterol: 30 % reduction of control
  Plasma lipids: triglycerides: 45 % reduction of control
[2]
  Hepatic TG (triacylglycerol): 7.7 ± 2.9 µmol/g
[3]
  Body weight gain: 234 ± 20 g
[4]
  Fatty acid composition in liver: Monounsaturated tetradecylthioacetic acid: 1.1 ± 0.2 % of total
  Fatty acid composition in liver: Oleic acid: 14.9 ± 1.0 % of total
  Fatty acid composition in plasma: Monounsaturated tetradecylthioacetic acid: 0.2 ± 0.1 % of total
  Fatty acid composition in plasma: Oleic acid: 22.1 ± 0.5 % of total
[5]
  Hepatic and plasma content of monounsaturated fatty acids (mainly oleic acid): nearly doubled
  Polyunsaturated fatty acids (mainly linoleic acid and DHA): decreased
[6]
  Body weight gain: 6.23 ± 0.28 g/day

Source: patent US6441036B1 (priority 1998, dated 2002)
